# Results taken from patent US10023543B2 (CELGENE QUANTICEL RESEARCH, INC., priority 2014, dated 2018).
# Where a name gives a salt, the structure may show the parent alone. Read-outs that look alike come from different tables or passages of the source.
# Key:
# THP-1 (AML) cells = test: LSD1 CD11b cellular assay (flow cytometry); assay type: cell-based; conditions: Homo sapiens, THP-1, 96 h
# full-length human LSD1 = full-length human LSD1 (Homo sapiens (Human), UniProt O60341); test: In vitro enzyme inhibition assay LSD-1 (TR-FRET); assay type: biochemical; conditions: H3K4me1-biotin peptide
# Kasumi-1 = Kasumi-1 AML cell line proliferation assay (Cell-MTS assay); assay type: cell-based; conditions: Homo sapiens, 168 hours
# From the text: Colorimetric cellular assay to assess the ability of LSD-1 small molecule inhibitors to effect the proliferation of the established AML cancer cell line Kasumi-1.
# This Cell-MTS assay is a 7-day plate based colorimetric assay which quantifies the amount of newly generated NADH in the presence and absence of test compound. These NADH levels are used as a proxy for the quantification of cancer cell proliferation.
# The established cancer cell line Kasumi-1 with a verified p53 mutation were purchased from American Type Culture Collection (ATCC) and routinely passaged according to ATCC published protocols. For routine assay these cells were seeded at a density of 20,000 cells per 96-well. […] At the end of this compound incubation period, 80 μl of media is removed and 20 μL of CellTiter 96® AQueous Non-Radioactive Cell Proliferation Assay solution (Promega) is added. The cells are incubated until the OD490 is >0.6. IC50 values are calculated using the IDBS XLfit software package and include background subtracted OD490 values and normalization to DMSO controls.
# [1] = CD11b expressing cells, 4 days, read-out: THP-1 IC50
IC50 (THP-1 (AML) cells; [1]) [µM],IC50 (full-length human LSD1) [µM],Structure (SMILES),IC50 (Kasumi-1) [µM],IC50 (THP-1 (AML) cells; read-out: THP-1 IC50 (μM)) [µM]
< 0.1,< 0.1,"Cn1c(N2CCC(N)CC2)nc(-c2ccc(C#N)c(F)c2)c(-c2ccc(OCCO)cc2)c1=O [Example 96, 4-[2-(4-aminopiperidin-1-yl)-5-[4-(2-hydroxyethoxy)phenyl]-1-methyl-6-oxopyrimidin-4-yl]-2-fluorobenzonitrile]",,
< 0.1,,"CN(C)C1CCN(c2nc(-c3ccc(C#N)c(F)c3)c(-c3ccc4nn(C)cc4c3)c(=O)n2C)CC1 [Example 71, 4-[2-(4-dimethylamino-piperidin-1-yl)-1-methyl-5-(2-methyl-2H-indazol-5-yl)-6-oxo-1,6-dihydro-pyrimidin-4-yl]-2-fluoro-benzonitrile]",< 0.1,
,,"Cc1ccc(-c2c(-c3ccc(C#N)cc3)nc(N3CCC(N)CC3)n(C)c2=O)cc1 [Example 1, 4-(2-(4-aminopiperidin-1-yl)-1-methyl-6-oxo-5-p-tolyl-1,6-dihydropyrimidin-4-yl)benzonitrile, HCl salt]",< 0.1,< 0.1
< 0.1,,"CNC1CCN(c2nc(-c3ccc(C#N)c(F)c3)c(-c3ccc4nn(C)cc4c3)c(=O)n2C)CC1 [Example 65, 2-fluoro-4-[1-methyl-2-(4-methylamino-piperidin-1-yl)-5-(2-methyl-2H-indazol-5-yl)-6-oxo-1,6-dihydro-pyrimidin-4-yl]-benzonitrile]",< 0.1,
